Measured values from patent publication US6635802B1, “Nuclear transfer using cells cultured in serum starvation media containing apoptosis inhibitors” (The Texas A&M University System, priority 2000, dated 2003).
Where a SMILES comes first, the peptide text is derived from it. [ ]: non-standard residue; d: D form. The star is where a group is joined. Sta = CC(C)C[C@H](N)[C@@H](O)CC(=O)O; Isovaleryl = CC(C)CC(=O)*

Legend:
Assay type in all cases: cell-based
[1] = test system: porcine PGCs; assay: In vitro culture of porcine PGCs on STO feeder cells with apoptosis inhibitors; AP-stained colonies counted; details: Table 6 protease inhibitors: MAC 0.7 pM, PA 50 μM, AEBSF 250 μM, TLCK 100 μM; normalized to control
[2] = test system: porcine PGCs; assay: as above; details: for Effect on the number of PGCs, in words: single concentrations of Tables 6 and 7; for Normalized # of Colonies + SE: Table 7 antioxidants: NAC 1.0 mM, BHA 0.1 mM, BPN 1.0 mM, CIM 2.0 mM, normalized to control
Source text: Porcine fetuses were collected from hysterectomized uteri of four-way crossbred gilts (DeKalb, Ill.) between day 25 and 30 of pregnancy (estrus=day 0). Fetuses were washed in phosphate buffered saline supplemented with BSA (0.4%, Sigma St. Louis, Mo.) and penicillin/streptomycin (1%, Gibco BRL, Rockville, Md.) (PBS/BSA/PS). Urogenital ridges, appeared as longitudinal protrusions along the medial mesonephric surface, were isolated and washed in PBS/BSA/PS followed by several washes in PES medium before PGC collection. The PES medium was comprised of 50:50 mixture of Dulbecco's modified Eagle's medium (DMEM) and Ham's F10 medium supplemented with 15% fetal bovine serum (FBS), L-glutamine (2 mM), β-mercaptoethanol (0.1 mM), MEM non-essential amino acids (1%) and penicillin/streptomycin (1%). All media and supplements were purchased from Gibco BRL.
PGCs were isolated by incubation in 0.25% trypsin/1 mM EDTA solution (Gibco BRL) followed by gentle pipetting or by mechanical dissociation of ridges into small fragments followed by gentle pipetting. After tissue disruption, cells were centrifuged for 5 minutes at 250 rpm to remove tissue debris and clumps. The supernatant containing most the single cells was collected and centrifuged at 1000 rpm for 10 minutes.
PGCs were resuspended with PES medium containing cytokines, such as soluble recombinant human stem cell factor (SCF; 40 ng/ml), human basic fibroblast growth factor (bFGF; 20 ng/ml), and human leukemia inhibitory factor (LIF; 20 ng/ml). All cytokines were obtained from R&D Systems (Minneapolis, Minn.). Cell suspensions were plated on irradiated mouse STO feeder cells (3×10^6 cells per 35 mm well), prepared as previously described (Piedrahita et al., 1998) and cultured in humidified environment of 5% CO2 in air, 38° C. PGC-derived colonies with ES-like morphology after 7-10 days of culture are passaged to fresh feeders for establishment of cell lines. PGC-derived colonies were dissociated with 0.25% trypsin/1 mM EDTA (Gibco BRL) for 10 minutes. […] To identify PGC-derived cells and the state of differentiation were determined by morphology and by expression of alkaline phosphatase (AP).
AP activity was determined as described previously (Moore and Piedrahita, 1997). Briefly, culture plates were rinsed twice in PBS and fixed in 4% formaldehyde in PBS for 15 minutes at room temperature. Fixed cells were washed twice with PBS and stained in naphtol AS-MX phosphate (200 μg/ml; Sigma) and Fast Red TR salt (1 mg/ml; Sigma) in 100 mM Tris buffer, pH 8.2 for 30 minutes at room temperature. Staining was terminated by washing cultures in PBS. Specificity of AP activity was determined by staining in the presence of the AP inhibitor, tetramisole (500 μM; Sigma). Mouse ES cells also were stained as control for AP activity.
To determine the effect of apoptosis inhibitors on survival of porcine PGCs in vitro, freshly isolated PGCs were cultured as described above with or without apoptosis inhibitors, α2-macroglobulin (MAC: broad range protease inhibitor, 1.4 pM) and N-acetylcysteine (NAC: antioxidant, 1 mM). After 7-10 days of culture, colonies were stained for AP activity and counted. Studies were performed at least three replicates. The data were normalized to the treatment with no inhibitors added (control) and tested for homogeneity of variance and analyzed by ANOVA. Mean separation is accomplished by Fisher's protected LSD using software SuperANOVA (Abacus Concepts).
Dose titration of MAC (0.35, 0.7, 1.4, and 2.8 pM) and NAC (0.25, 0.5, 1.0, and 2.0 mM), to determine the optimal concentration of inhibitors, were performed.

[3] = test system: Bovine embryonic fibroblasts (BEF); assay: Cell cycle distribution (propidium iodide flow cytometry) of serum starved bovine embryonic fibroblasts
Method: (§1) Bovine embryonic fibroblasts (BEF) were isolated from the fetus with 3-5 cm crown-rump length. After two or three passages, cells were plated one million cells per plate (100 mm) with growth medium (DMEM) with 2 mM L-glutamine, 0.1 mM β-mercaptoethanol and 10% FBS. After 24 hours, cells were washed with PBS 3-5 times and then serum starvation medium with 0.5% FBS was added. In addition, cells were treated with serum starvation medium containing apoptosis inhibitors such as a2-macroglobulin (0.7 pM), N-acetylcysteine (1 mM) and glutathione (2 mM). Cells were treated with serum starvation with or without apoptosis inhibitors for 5 or 10 days. Then cells were trypsinized and counted.
(§2) Cells (1×10^6) were washed in 0.15 M NaCI, fixed in 70% ethanol, and stored at −20° C. overnight or until ready to be analyzed. For analysis, cells were centrifuged, rinsed with PBS, resuspended in 500 μl of a 0.05 mg/ml propidium iodide/0.1% Triton X-100/0.2 mg/ml RNase A solution, and incubated for a minimum of 30 minutes at room temperature in the dark. Cells were analyzed by flow cytometry to determine DNA content. Modfit LT™ (Verity Software House, Topsham, Me.) was used to model the cell cycle distribution within each sample.

[4] = test system: Bovine embryonic fibroblasts (BEF); assay: TUNEL assay (flow cytometry) of serum starved bovine embryonic fibroblasts; details: MAC 0.7 pM, NAC 1 mM, GSH 2 mM
Method: as §1
After counting, cells were fixed and stained according to protocols with the APO-BRDU kit (Phoenix Flow Systems, San Diego, Calif.). Briefly, cells were fixed in 1% paraformaldehyde in PBS on ice for 15 minutes, washed in PBS, and fixed in 70% ethanol and stored at −20° C. until use. After removing the fixative, cells were washed twice and suspended in 50 μl of labeling solution containing Br-dUTP (bromolated deoxyuridine triphosphate) and TdT (terminal deoxynucleotidyl transferase) for 60 minutes at 37° C. TdT catalyzes the addition of Br-dUTP to the 3′-OH ends of DNA strand breaks in a template independent manner. To determine base line fluorescence, control cells were incubated without TdT. After rinsing, cells were incubated with an anti-BrdU monoclonal antibody conjugated to fluorescein for 30 minutes in the dark at room temperature; apoptotic cells which contain many free 3′-OH ends are intensely labeled, while non-apoptotic cells whose DNA is largely intact have little Br-dUTP incorporation and remain unlabeled. Following counterstaining with a propidium iodide/RNase A solution for 30 minutes in the dark, which allows simultaneous analysis of cell cycle position and apoptosis, cells were analyzed on a FACSCalibur™ flow cytometer (Becton Dickinson, San Jose, Calif.). Fluorescence emissions were measured at 582±21 nm for propidium iodide and 530±15 nm for fluorescein, without spectral compensation, after excitation at 488 nm by an argon-ion laser. For analysis, gates were set so that less than 2% of samples incubated without TdT were positive. Any event above this gate was deemed TUNEL positive for samples incubated with TdT.

[5] = test system: Porcine embryonic fibroblast (PEF); assay: Cell cycle distribution (propidium iodide flow cytometry) of serum starved porcine embryonic fibroblasts
Source text: (§3) Porcine embryonic fibroblast (PEF) were isolated from day 25-28 fetuses according to the methods previously described (Hogan et al., 1994). Briefly, porcine fetuses of day 25-30 (day 0=estrus) were removed from the uterus and rinsed with PBS+penicillin/streptomycin solution (PBS/PS). Head, limbs and internal organs were removed, and the carcasses were minced with razor blades or ground using a syringe head until they were the consistency of sludge. Then these were trypsinized 2-3 times using 0.25% trypsin+EDTA for 20 minutes. The supernatant fraction was removed and centrifuged to collect the cells. The cells were plated using DMEM+10% fetal bovine serum (FBS) and cultured up to 80-90% confluency before further passage.
as §1, §2

[6] = test system: Porcine embryonic fibroblast (PEF); assay: TUNEL assay (flow cytometry) of serum starved porcine embryonic fibroblasts; details: serum starvation 5 days, MAC 0.7 pM, NAC 1 mM, GSH 2 mM, serum starved without inhibitor 26.50
Source text: as §3, §1
After counting, cells were fixed and stained according to protocols with the APO-BRDU kit (Phoenix Flow Systems, San Diego, Calif.). […] To determine base line fluorescence, control cells were incubated without TdT. […] Following counterstaining with a propidium iodide/RNase A solution for 30 minutes in the dark, which allows simultaneous analysis of cell cycle position and apoptosis, cells were analyzed on a FACSCalibur™ flow cytometer (Becton Dickinson, San Jose, Calif.). Fluorescence emissions were measured at 582±21 nm for propidium iodide and 530±15 nm for fluorescein, without spectral compensation, after excitation at 488 nm by an argon-ion laser. […]

[7] = addition during the starvation period
[8] = serum starvation 5 days, MAC 0.7 pM, NAC 1 mM, GSH 2 mM

With NCCc1ccc(S(=O)(=O)F)cc1 [AEBSF, 4-(2-aminoethyl)benzenesulfonyl fluoride] as the compound, how does the “Normalized # of Colonies + SE” value [1] read?
Its value is 1.14 ± 0.07.

And the “Effect on the number of PGCs, in words” value [2]?
Its value is “positive effect”.

Which “Normalized # of Colonies + SE” value [2] does the source give for COc1ccc(O)c(C(C)(C)C)c1 [BHA, butylated hydroxyanisole] here?
Its value is 2.48 ± 0.27.

For CC(C)(C)[N+]([O-])=Cc1ccccc1 [BPN, N-t-butyl-α-phenylnitrone], which “Normalized # of Colonies + SE” value [2] is on record?
The value was 1.95 ± 0.17.

CN/C(=N/CCSCc1nc[nH]c1C)NC#N [CIM, cimetidine] was tested. Which “Normalized # of Colonies + SE” value [2] did it give?
Its value is 1.95 ± 0.05.

For N[C@@H](CCC(=O)N[C@@H](CS)C(=O)NCC(=O)O)C(=O)O [GSH, glutathione], which “Proportion of cells going into G0, in words” value [3, 7] is on record?
The value was “did not affect the proportion of cells going into G0”.

And the “G2/M (%)” value [3, 8]?
The value was 10%.

What about the “S (%)” value [3, 8] of the same compound?
The value was 4%.

And the “G0/G1 (%)” value ([3]; serum starvation (0.5% FBS) 5 days, MAC 0.7 pM, NAC 1 mM, GSH 2 mM)?
Its value is 86%.

What about the “5-day Apoptosis (%)” value ([4]; serum starvation 5 days, serum starved without inhibitor 15.0) of the same compound?
Its value is 1.5%.

And the “10-day Apoptosis (%)” value ([4]; serum starvation 10 days, serum starved without inhibitor 20.4)?
Its value is 0.8%.

What about the “Proportion of cells going into G0, in words” value [5, 7] of the same compound?
Its value is “did not affect the proportion of cells going into G0”.

And the “G0/G1 (%)” value [5, 8]?
Its value is 95%.

What about the “G2/M (%)” value [5, 8] of the same compound?
The value was 3%.

What about the “S (%)” value [5, 8] of the same compound?
Its value is 2%.

And the “5-day Apoptosis (%)” value [6]?
The value was 0.12%.

Which “Normalized # of Colonies + SE” value [1] does the source give for CC(C)CC(=O)N[C@H](C(=O)N[C@H](C(=O)N[C@@H](CC(C)C)[C@@H](O)CC(=O)N[C@@H](C)C(=O)N[C@@H](CC(C)C)[C@@H](O)CC(=O)O)C(C)C)C(C)C [PA, pepstatin A] (Isovaleryl-VV[Sta]A[Sta]-OH) here?
The value was 0.85 ± 0.13.

With Cc1ccc(S(=O)(=O)N[C@@H](CCCCN)C(=O)CCl)cc1 [TLCK, Nα-p-tosyl-L-lysine chloromethyl ketone] as the compound, how does the “Normalized # of Colonies + SE” value [1] read?
Its value is 1.21 ± 0.10.

What about the “Effect on the number of PGCs, in words” value [2] of the same compound?
The value was “positive effect”.
